In patent US11739074B2, “Ras inhibitors” (Revolution Medicines, Inc., priority 2019, dated 2023):

Tests used:
AsPC-1 (K-Ras G12D) [1] = experiment: Potency assay: pERK in AsPC-1 cells; format: cell-based; details: Homo sapiens, ASPC1; AsPC-1 cells, K-Ras G12D; read-out: pERK EC50 (AsPC-1 KRAS G12D)
NCI-H358 (K-Ras G12C) = experiment: CellTiter-Glo cell viability assay, H358; format: cell-based; details: Homo sapiens, NCI-H358, 120 h, NCI-H358, K-Ras G12C, 5-day treatment; read-out: H358 Cell Viability IC50
Summary of the method: (§1)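 Luminescent viability readout on day 5, plates first brought to room temperature for ~30 min; compounds added straight to plated RAS-mutant cells. Values expressed as percent of mean DMSO signal, curves fitted with a four-parameter logistic model.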

AsPC-1 (K-Ras G12D) [2] = experiment: CellTiter-Glo cell viability assay, AsPC-1; format: cell-based; details: Homo sapiens, ASPC1, 120 h, AsPC-1, K-Ras G12D, 5-day treatment; read-out: AsPC-1 Cell Viability IC50
Summary of the method: as §1

KRAS G13D = KRAS G13D (Homo sapiens, UniProt P01116+P62937, G13D); experiment: Ras-Raf disruption/FRET/MOA assay, KRAS G13D; format: biochemical; details: disruption of BRAF RBD binding, with Cyclophilin A; read-out: KRAS G13D FRET IC50
Summary of the method: (§2)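 In this biochemical mechanism-of-action format, 12.5 nM GMPPNP-bound KRAS and 50 nM BRAF^RBD are mixed with 25 μM Cyclophilin A and dilution series of compound. After a 3 h incubation, tag-directed FRET antibodies report remaining KRAS:RAF association.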

KRAS G12S = KRAS G12S (Homo sapiens, UniProt P01116+P62937, G12S); experiment: Ras-Raf disruption/FRET/MOA assay, KRAS G12S; format: biochemical; details: disruption of BRAF RBD binding, with Cyclophilin A; read-out: KRAS G12S FRET IC50
Summary of the method: as §2

KRAS G13C = KRAS G13C (Homo sapiens, UniProt P01116+P62937, G13C); experiment: Ras-Raf disruption/FRET/MOA assay, KRAS G13C; format: biochemical; details: disruption of BRAF RBD binding, with Cyclophilin A; read-out: KRAS G13C FRET IC50
Summary of the method: as §2

KRAS G12V = KRAS G12V (Homo sapiens, UniProt P01116+P62937, G12V); experiment: Ras-Raf disruption/FRET/MOA assay, KRAS G12V; format: biochemical; details: disruption of BRAF RBD binding, with Cyclophilin A; read-out: KRAS G12V FRET IC50
Summary of the method: as §2

KRAS G12D = KRAS G12D (Homo sapiens, UniProt P01116+P62937, G12D); experiment: Ras-Raf disruption/FRET/MOA assay, KRAS G12D; format: biochemical; details: disruption of BRAF RBD binding, with Cyclophilin A; read-out: KRAS G12D FRET IC50
Summary of the method: as §2

KRAS WT = KRAS WT (Homo sapiens, UniProt P01116+P62937); experiment: Ras-Raf disruption/FRET/MOA assay, KRAS WT; format: biochemical; details: disruption of BRAF RBD binding, with Cyclophilin A; read-out: KRAS WT FRET IC50
Summary of the method: as §2

KRAS G12C = KRAS G12C (Homo sapiens, UniProt P01116+P62937, G12C); experiment: Ras-Raf disruption/FRET/MOA assay, KRAS G12C; format: biochemical; details: disruption of BRAF RBD binding, with Cyclophilin A; read-out: KRAS G12C FRET IC50
Summary of the method: as §2

KRAS Q61H = KRAS Q61H (Homo sapiens, UniProt P01116+P62937, Q61H); experiment: Ras-Raf disruption/FRET/MOA assay, KRAS Q61H; format: biochemical; details: KRAS Q61H; read-out: KRAS Q61H FRET data IC50
Description: (§3) Disruption of B-Raf Ras-Binding Domain (BRAF^RBD) Interaction with K-Ras by Compounds of the Invention (Also Called a FRET Assay or an MOA Assay)
(§4) Note—The following protocol describes a procedure for monitoring disruption of K-Ras G12C (GMP-PNP) binding to BRAF^RBD by a compound of the invention. This protocol may also be executed substituting other Ras proteins or nucleotides, such as K-Ras G12D and K-Ras G13D.
(§5) The purpose of this biochemical assay was to measure the ability of test compounds to facilitate ternary complex formation between a nucleotide-loaded K-Ras isoform and Cyclophilin A; the resulting ternary complex disrupts binding to a BRAF^RBD construct, inhibiting K-Ras signaling through a RAF effector.
(§6) In assay buffer containing 25 mM HEPES pH 7.3, 0.002% Tween20, 0.1% BSA, 100 mM NaCl and 5 mM MgCl2, tagless Cyclophilin A, His6-K-Ras-GMPPNP, and GST-BRAF^RBD were combined in a 384-well assay plate at final concentrations of 25 μM, 12.5 nM, and 50 nM, respectively. Compound was present in plate wells as a 10-point 3-fold dilution series starting at a final concentration of 30 μM. After incubation at 25° C. for 3 hours, a mixture of anti-His Eu-W1024 and anti-GST allophycocyanin was then added to assay sample wells at final concentrations of 10 nM and 50 nM, respectively, and the reaction incubated for an additional 1.5 hours. […] Compounds that facilitate disruption of a K-Ras:RAF complex were identified as those eliciting a decrease in the TR-FRET ratio relative to DMSO control wells.

NRAS G12C = molecular target: T1, NRAS G12C (Homo sapiens, UniProt P01111+P62937, G12C); experiment: Ras-Raf disruption/FRET/MOA assay, NRAS G12C; format: biochemical; details: NRAS G12C; read-out: NRAS G12C FRET data IC50
T1 construct: His6
Summary of the method: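 Disruption of Ras:RAF binding was read as a drop in TR-FRET ratio versus DMSO controls. The buffer was 25 mM HEPES pH 7.3, 0.002% Tween20, 0.1% BSA, 100 mM NaCl and 5 mM MgCl2. Compounds were tested as a 10-point 3-fold dilution series from 30 μM. Detection used 10 nM anti-His Eu-W1024 and 50 nM anti-GST allophycocyanin.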

NRAS WT = molecular target: T2, NRAS WT (Homo sapiens, UniProt P01111+P62937); experiment: Ras-Raf disruption/FRET/MOA assay, NRAS WT; format: biochemical; details: NRAS WT; read-out: NRAS WT FRET data IC50
T2 construct: His6
Description: as §3, §4, §5, §6

NRAS Q61K = molecular target: T3, NRAS Q61K (Homo sapiens, UniProt P01111+P62937, Q61K); experiment: Ras-Raf disruption/FRET/MOA assay, NRAS Q61K; format: biochemical; details: NRAS Q61K; read-out: NRAS Q61K FRET data IC50
T3 construct: His6
Description: as §3, §4, §5, §6

NRAS Q61R = molecular target: T4, NRAS Q61R (Homo sapiens, UniProt P01111+P62937, Q61R); experiment: Ras-Raf disruption/FRET/MOA assay, NRAS Q61R; format: biochemical; details: NRAS Q61R; read-out: NRAS Q61R FRET data IC50
T4 construct: His6
Description: as §3, §4, §5, §6

Sequence of KRAS G12S (P01116 1-169 isoform P01116-2 G12S limits assumed): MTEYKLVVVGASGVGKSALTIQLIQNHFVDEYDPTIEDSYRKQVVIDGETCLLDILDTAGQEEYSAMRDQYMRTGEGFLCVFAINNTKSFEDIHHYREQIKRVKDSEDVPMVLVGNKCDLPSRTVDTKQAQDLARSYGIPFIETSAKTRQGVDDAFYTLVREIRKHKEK
Sequence of KRAS G12S (P62937 whole entry): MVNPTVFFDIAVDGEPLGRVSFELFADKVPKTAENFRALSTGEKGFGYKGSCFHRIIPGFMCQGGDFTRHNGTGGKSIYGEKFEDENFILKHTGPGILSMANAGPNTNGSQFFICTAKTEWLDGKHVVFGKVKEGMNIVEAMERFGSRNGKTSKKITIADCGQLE
T4 sequence (P01111 whole entry Q61R): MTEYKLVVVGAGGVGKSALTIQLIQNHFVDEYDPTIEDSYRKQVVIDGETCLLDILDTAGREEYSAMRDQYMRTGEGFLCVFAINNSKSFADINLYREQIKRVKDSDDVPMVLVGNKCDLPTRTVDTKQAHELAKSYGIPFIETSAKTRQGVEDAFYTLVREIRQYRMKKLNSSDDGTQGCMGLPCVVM
T4 sequence (P62937 whole entry): as the sequence (P62937 whole entry) above
T2 sequence (P01111 whole entry): as the sequence (P01111 whole entry Q61R) above, with R61Q counted along it
T2 sequence (P62937 whole entry): as the sequence (P62937 whole entry) above
Sequence of KRAS G13C (P01116 1-169 isoform P01116-2 G13C limits assumed): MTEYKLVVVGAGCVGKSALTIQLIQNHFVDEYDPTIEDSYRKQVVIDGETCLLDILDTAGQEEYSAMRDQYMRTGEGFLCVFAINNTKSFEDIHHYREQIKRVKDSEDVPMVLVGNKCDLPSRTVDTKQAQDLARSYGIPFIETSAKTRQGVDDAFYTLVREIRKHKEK
Sequence of KRAS G13C (P62937 whole entry): as the sequence (P62937 whole entry) above
T3 sequence (P01111 whole entry Q61K): as the sequence (P01111 whole entry Q61R) above, with R61K counted along it
T3 sequence (P62937 whole entry): as the sequence (P62937 whole entry) above
T1 sequence (P01111 whole entry G12C): as the sequence (P01111 whole entry Q61R) above, with G12C, R61Q counted along it
T1 sequence (P62937 whole entry): as the sequence (P62937 whole entry) above
Sequence of KRAS G12C (P01116 1-169 isoform P01116-2 G12C limits assumed): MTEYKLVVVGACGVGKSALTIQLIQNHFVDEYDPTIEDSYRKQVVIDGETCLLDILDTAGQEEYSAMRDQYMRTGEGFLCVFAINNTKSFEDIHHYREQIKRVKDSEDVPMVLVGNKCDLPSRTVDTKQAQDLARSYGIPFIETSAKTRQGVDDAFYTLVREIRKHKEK
Sequence of KRAS G12C (P62937 whole entry): as the sequence (P62937 whole entry) above
Sequence of KRAS G12V (P01116 1-169 isoform P01116-2 G12V limits assumed): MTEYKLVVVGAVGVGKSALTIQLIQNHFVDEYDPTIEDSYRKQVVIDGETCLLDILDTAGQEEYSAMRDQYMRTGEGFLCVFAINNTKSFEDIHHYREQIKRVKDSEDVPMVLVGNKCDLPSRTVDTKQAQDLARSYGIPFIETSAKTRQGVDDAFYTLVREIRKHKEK
Sequence of KRAS G12V (P62937 whole entry): as the sequence (P62937 whole entry) above
Sequence of KRAS WT (P01116 1-169 isoform P01116-2 limits assumed): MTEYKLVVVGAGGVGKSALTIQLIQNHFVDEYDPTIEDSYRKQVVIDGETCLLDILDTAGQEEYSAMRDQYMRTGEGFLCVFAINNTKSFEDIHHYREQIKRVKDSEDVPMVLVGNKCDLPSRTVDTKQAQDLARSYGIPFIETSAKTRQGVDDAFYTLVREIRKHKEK
Sequence of KRAS WT (P62937 whole entry): as the sequence (P62937 whole entry) above
Sequence of KRAS G13D (P01116 1-169 isoform P01116-2 G13D limits assumed): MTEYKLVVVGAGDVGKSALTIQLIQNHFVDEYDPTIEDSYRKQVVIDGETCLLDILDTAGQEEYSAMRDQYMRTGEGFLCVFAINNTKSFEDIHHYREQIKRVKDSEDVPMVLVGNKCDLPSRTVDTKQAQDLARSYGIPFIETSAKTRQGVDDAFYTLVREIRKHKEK
Sequence of KRAS G13D (P62937 whole entry): as the sequence (P62937 whole entry) above
Sequence of KRAS G12D (P01116 1-169 isoform P01116-2 G12D limits assumed): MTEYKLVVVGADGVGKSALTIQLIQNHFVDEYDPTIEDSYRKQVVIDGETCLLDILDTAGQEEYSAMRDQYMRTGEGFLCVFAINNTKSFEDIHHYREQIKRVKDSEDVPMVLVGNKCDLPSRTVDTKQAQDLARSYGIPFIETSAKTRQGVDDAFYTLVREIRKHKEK
Sequence of KRAS G12D (P62937 whole entry): as the sequence (P62937 whole entry) above
Sequence of KRAS Q61H (P01116 1-169 isoform P01116-2 Q61H limits assumed): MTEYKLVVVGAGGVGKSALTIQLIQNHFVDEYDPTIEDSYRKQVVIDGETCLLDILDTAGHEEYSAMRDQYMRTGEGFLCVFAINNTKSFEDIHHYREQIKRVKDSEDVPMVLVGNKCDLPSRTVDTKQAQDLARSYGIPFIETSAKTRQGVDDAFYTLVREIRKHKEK
Sequence of KRAS Q61H (P62937 whole entry, the tested form may be a part): as the sequence (P62937 whole entry) above

SMILES	EC50 (AsPC-1 (K-Ras G12D) [1])	IC50 (NCI-H358 (K-Ras G12C))	IC50 (AsPC-1 (K-Ras G12D) [2])	IC50 (KRAS G13D)	IC50 (KRAS G12S)	IC50 (KRAS G13C)	IC50 (KRAS G12V)	IC50 (KRAS G12D)	IC50 (KRAS WT)	IC50 (KRAS G12C)	IC50 (KRAS Q61H)	IC50 (NRAS G12C)	IC50 (NRAS WT)	IC50 (NRAS Q61K)	IC50 (NRAS Q61R)
CCn1c(-c2cccnc2[C@H](C)OC)c2c3cc(ccc31)-c1csc(n1)C[C@H](NC(=O)[C@H](C1CCCC1)N1CC[C@]3(CCN(C(=O)[C@H]4CN4)C3)C1=O)C(=O)N1CCC[C@H](N1)C(=O)OCC(C)(C)C2 [Compound 319]	< 5 µM	< 0.01 µM	0.1 to 1 µM	1 to 10 µM	1 to 10 µM	0.1 to 1 µM	1 to 10 µM	1 to 10 µM	1 to 10 µM	0.01 to 0.1 µM	0.1 to 1 µM	0.01 to 0.1 µM	1 to 10 µM	0.1 to 1 µM	1 to 10 µM
CCn1c(-c2cccnc2[C@H](C)OC)c2c3cc(ccc31)-c1csc(n1)C[C@H](NC(=O)[C@H](C1CCCC1)N1CC[C@]3(CCN(C(=O)[C@@H]4N[C@@H]4C4CC4)C3)C1=O)C(=O)N1CCC[C@H](N1)C(=O)OCC(C)(C)C2 [Compound 234]		0.01 to 0.1 µM	0.1 to 1 µM	> 10 µM	1 to 10 µM	1 to 10 µM	1 to 10 µM	1 to 10 µM	1 to 10 µM	0.1 to 1 µM	1 to 10 µM	1 to 10 µM	1 to 10 µM	1 to 10 µM	1 to 10 µM
CCn1c(-c2cccnc2[C@H](C)OC)c2c3cc(ccc31)-c1csc(n1)C[C@H](NC(=O)[C@H](C(C)C)N(C)C(=O)N1C3CCC1CN(C(=O)[C@H]1CN1)C3)C(=O)N1CCC[C@H](N1)C(=O)OCC(C)(C)C2 [Compound 303]	< 5 µM	0.01 to 0.1 µM	0.1 to 1 µM	0.1 to 1 µM	0.1 to 1 µM	0.1 to 1 µM	0.1 to 1 µM	0.1 to 1 µM	0.1 to 1 µM	0.1 to 1 µM	0.01 to 0.1 µM	0.1 to 1 µM	0.1 to 1 µM	0.1 to 1 µM	0.1 to 1 µM
CCn1c(-c2cccnc2[C@H](C)OC)c2c3cc(ccc31)-c1cc(O)cc(c1)C[C@H](NC(=O)[C@H](C(C)C)N1CO[C@]3(CCN(C(=O)[C@H]4CN4)C3)C1=O)C(=O)N1CCC[C@H](N1)C(=O)OCC(C)(C)C2 [Compound 231]	< 5 µM	< 0.01 µM	0.1 to 1 µM	0.01 to 0.1 µM	0.01 to 0.1 µM	< 0.01 µM	0.01 to 0.1 µM	0.01 to 0.1 µM	0.01 to 0.1 µM	< 0.01 µM	< 0.01 µM	< 0.01 µM	0.01 to 0.1 µM	0.01 to 0.1 µM	0.1 to 1 µM
CCn1c(-c2cccnc2[C@H](C)OC)c2c3cc(ccc31)-c1cc(cc(C(F)F)c1)C[C@H](NC(=O)[C@H](C1CCCC1)N1CC[C@]3(CCN(C(=O)[C@@H]4N[C@@H]4C4CC4)C3)C1=O)C(=O)N1CCC[C@H](N1)C(=O)OCC(C)(C)C2 [Compound 318]		0.1 to 1 µM	0.1 to 1 µM	1 to 10 µM	1 to 10 µM	0.1 to 1 µM	1 to 10 µM	1 to 10 µM	0.1 to 1 µM	0.1 to 1 µM	0.1 to 1 µM	1 to 10 µM	1 to 10 µM	1 to 10 µM	1 to 10 µM
CCn1c(-c2cccnc2[C@H](C)OC)c2c3cc(ccc31)-c1csc(n1)C[C@H](NC(=O)[C@H](C(C)C)N(C)C(=O)N1CCC[C@H](N(C)C(=O)[C@H]3CN3)C1)C(=O)N1CCC[C@H](N1)C(=O)OCC(C)(C)C2 (atropisomer, axis not shown) [Compound 290]	< 5 µM	0.01 to 0.1 µM	1 to 10 µM	1 to 10 µM	0.1 to 1 µM	0.1 to 1 µM	0.1 to 1 µM	1 to 10 µM	0.1 to 1 µM	0.1 to 1 µM	0.1 to 1 µM	0.1 to 1 µM	0.1 to 1 µM	0.1 to 1 µM	0.1 to 1 µM
CCn1c(-c2cccnc2[C@H](C)OC)c2c3cc(ccc31)-c1cc(O)cc(c1)C[C@H](NC(=O)[C@H](C(C)C)N1CO[C@@]3(CCN(C(=O)[C@H]4CN4)C3)C1=O)C(=O)N1CCC[C@H](N1)C(=O)OCC(C)(C)C2 [Compound 232]	< 5 µM		1 to 10 µM	0.1 to 1 µM	0.1 to 1 µM	0.01 to 0.1 µM	0.1 to 1 µM	1 to 10 µM	0.1 to 1 µM	0.01 to 0.1 µM	0.01 to 0.1 µM	0.01 to 0.1 µM	0.1 to 1 µM	0.1 to 1 µM	0.1 to 1 µM
CCn1c(-c2cccnc2[C@H](C)OC)c2c3cc(ccc31)-c1cc(O)cc(c1)C[C@H](NC(=O)[C@H](C1CCCC1)N1CC[C@@]3(CCN(C(=O)[C@@H]4N[C@@H]4C4CC4)C3)C1=O)C(=O)N1CCC[C@H](N1)C(=O)OCC(C)(C)C2 [Compound 215]	< 5 µM		1 to 10 µM	0.1 to 1 µM	0.1 to 1 µM	0.01 to 0.1 µM	0.1 to 1 µM	0.1 to 1 µM	0.1 to 1 µM	0.01 to 0.1 µM	0.01 to 0.1 µM	0.01 to 0.1 µM	0.1 to 1 µM	1 to 10 µM	1 to 10 µM
CCn1c(-c2cccnc2[C@H](C)OC)c2c3cc(ccc31)-c1cc(cc(C(F)F)c1)C[C@H](NC(=O)[C@H](C1CCCC1)N1CC[C@]3(CCN(C(=O)[C@H]4CN4)C3)C1=O)C(=O)N1CCC[C@H](N1)C(=O)OCC(C)(C)C2 [Compound 233]	< 5 µM		1 to 10 µM	1 to 10 µM	1 to 10 µM	0.1 to 1 µM	1 to 10 µM	1 to 10 µM	1 to 10 µM	0.1 to 1 µM	0.1 to 1 µM	0.1 to 1 µM	1 to 10 µM	1 to 10 µM	> 10 µM
